From patent publication US20060228694A1, “Methods to individualize combination therapy” (priority 2003, published 2006)

Test system: A549 cells
Assay: In vitro cytotoxicity screening with median-effect (combination index) analysis of irinotecan and carboplatin
Format: cell-based
Conditions: single drug versus irinotecan plus carboplatin combination
Description: As shown, therapeutic agents A and B are tested individually and together at two different ratios for their ability to cause cell death or cell stasis. In these experiments cell death or stasis was assessed using the MTT (3-[4,5-dimethylthiazol-2-yl]-2,5-diphenyltetrazolium) assay described below. Briefly, the dye MTT is reduced by living cells, producing a measurable change in optical density that is correlated to cell viability.
Correlations between the concentration of therapeutic agents A and B, and the two different combination ratios (Y:Z and X:Y) are plotted against cytotoxicity. Cytotoxicity is calculated as a percentage of surviving cells based on the survival of untreated control cells. […] Once this correlation has been established, the cell survival or fraction affected (fa) is used as a surrogate for concentration in calculating the CI.
The Chou-Talalay median-effect method is preferred. The analysis utilizes an equation wherein the dose that causes a particular effect, fa, is given by: D=Dm[fa/(1−fa)]^1/m in which D is the dose of the drug used, fa is the fraction of cells affected by that dose, Dm is the dose for median effect signifying the potency and m is a coefficient representing the shape of the dose-effect curve (m is 1 for first order reactions). […]

SMILES: CCc1c2c(nc3ccc(OC(=O)N4CCC(N5CCCCC5)CC4)cc13)-c1cc3c(c(=O)n1C2)COC(=O)[C@]3(O)CC [irinotecan]
- Concentration required to achieve a 90% cell kill on its own compared with the concentration required when combined at a non-antagonistic ratio: significantly higher

SMILES: N.N.O=C([O-])C1(C(=O)[O-])CCC1.[Pt+2] [carboplatin]
- Concentration required to achieve a 90% cell kill on its own compared with the concentration required when combined at a non-antagonistic ratio: significantly higher
